Results on 17 compounds are retold here after ChEMBL document CHEMBL1671719, “Inhibition of antibiotic-resistant Staphylococcus aureus by the broad-spectrum dihydrofolate reductase inhibitor RAB1” (Antimicrob Agents Chemother, 2010).

The subject of assay [1] is Staphylococcus aureus. The experiment in a line: Ratio of Ki for TMP-resistant Staphylococcus aureus DHFR to Ki for wild type Staphylococcus aureus DHFR.
For assay [2], the target named is Dihydrofolate reductase (Staphylococcus aureus, UniProt P0A017, F99Y). The experiment in a line: Inhibition of Staphylococcus aureus DHFR F98Y mutant by MTS assay.
Assay [3] deals with Dihydrofolate reductase (Staphylococcus aureus, UniProt P0A017). Kind of assay: Inhibition of Staphylococcus aureus wild type recombinant DHFR by MTS assay.
The subject of assay [4] is Staphylococcus aureus. Kind of assay: Antimicrobial activity against methicillin-resistant Staphylococcus aureus. It counts as functional.
Assay [5] has as its system Staphylococcus aureus. The experiment in a line: microbe, parasite or virus in culture. Particulars: isolate NRS71.
The test system of assay [6] is Staphylococcus aureus. Kind of assay: Antimicrobial activity against vancomycin-resistant Staphylococcus aureus VRS2 by broth microdilution method. The assay is classed as functional.
The test system of assay [7] is Staphylococcus aureus. Kind of assay: Antimicrobial activity against methicillin-resistant Staphylococcus aureus isolate NRS1 by broth microdilution method. It counts as functional.
Assay [8] relates to Enterococcus faecalis. Kind of assay: Antimicrobial activity against vancomycin-resistant Enterococcus faecalis ATCC 700802 by broth microdilution method. The assay is classed as functional.
The subject of assay [9] is Bacillus anthracis. The experiment in a line: Antimicrobial activity against Bacillus anthracis Ames by broth microdilution method. The assay is classed as functional.
Assay [10] concerns Brucella abortus. The experiment in a line: Antimicrobial activity against Brucella abortus 2308 by broth microdilution method. The assay is classed as functional.
Assay [11] deals with Staphylococcus aureus. Kind of assay: Antimicrobial activity against methicillin-resistant Staphylococcus aureus isolate NRS70 by broth microdilution method. The assay is classed as functional.
Assay [12] has as its system Staphylococcus aureus. Kind of assay: Antimicrobial activity against vancomycin-resistant Staphylococcus aureus VRS1 by broth microdilution method. The assay is classed as functional.
The test system of assay [13] is Yersinia pestis. The experiment in a line: Antimicrobial activity against Yersinia pestis CO92 by broth microdilution method. The assay is classed as functional.
Assay [14] concerns Staphylococcus aureus. The experiment in a line: microbe, parasite or virus in culture. Particulars: isolate NRS123.
Assay [15] deals with Staphylococcus aureus. The experiment in a line: Antimicrobial activity against vancomycin-resistant Staphylococcus aureus VRS3 by broth microdilution method. The assay is classed as functional.
Assay [16] has as its system Francisella tularensis. The experiment in a line: Antimicrobial activity against Francisella tularensis Schu4 by broth microdilution method. It counts as functional.

≈ marks a conversion by molar mass, not a printed value. Where “and” joins values, the source holds several entries; their conditions need not be identical. Equal values may be shown once.

Take `CCC[C@H]1c2ccccc2C=NN1C(=O)/C=C/c1cc(Cc2cnc(N)nc2N)cc(OC)c1OC`: in assay [1], the Ratio IC50 is 0.6 and the Ratio Ki is 0.2. In assay [2], affinity was put at a Ki of 0.2 nM. In [3], the IC50 is 2.9 nM and 12.5 nM; the Ki worked out at 0.9 nM.

In turn, `COc1cc(Cc2cnc(N)nc2N)c2c(c1OC)OC(C1CC1)C=C2` (centres undefined) registered an MIC in [4] of at most 0.06 µg/mL.

For `COc1ncc([C@H]2c3ccccc3C=NN2C(=O)/C=C/c2cc(Cc3cnc(N)nc3N)cc(OC)c2OC)cn1`, in assay [1], the Ratio IC50 is 5.7 and the Ratio Ki is 1.9. In assay [2], this compound showed an IC50 of 65.4 nM and a Ki of 6.5 nM. Further, in assay [3], the IC50 was 11.5 nM and 3.9 nM; the Ki was 3.5 nM.

With `COc1cc(-c2ccccc2)cc([C@@H](C)C#Cc2c(C)nc(N)nc2N)c1`, the IC50 in assay [2] is 190 nM; in assay [3], 61 nM.

Turning to `CCCC1c2ccccc2C=NN1C(=O)/C=C/c1cc(Cc2cnc(N)nc2N)cc(O)c1OC` (centres undefined), the MIC in [5] was at most 0.0625 µg/mL; in assay [6] it was 4 µg/mL (≈ 8.46 µM); in assay [7] it was at most 0.0625 µg/mL; in [8], 0.03 µg/mL (≈ 0.0635 µM); in [9] it was 1 µg/mL (≈ 2.12 µM); in assay [10], 16 µg/mL (≈ 33.9 µM). For the same compound, the MIC in assay [11] is at most 0.0625 µg/mL; in assay [12] it was 8 µg/mL (≈ 16.9 µM); in assay [13], 4 µg/mL (≈ 8.46 µM); in [14] it was at most 0.0625 µg/mL; in [15], at most 0.125 µg/mL; in assay [16], 1 µg/mL (≈ 2.12 µM). Moreover, in assay [1], the Ratio IC50 turned out to be 0.9. Further, the Ratio Ki in assay [1] turned out to be 0.3. Further, the IC50 in assay [2] is 8.8 nM and 22.6 nM; in assay [3] it was 9.4 nM and 5.2 nM. Besides, the Ki in assay [2] was 0.9 nM; in assay [3] it was 2.8 nM.

For `COc1cc([C@H](C)C#Cc2c(C)nc(N)nc2N)ccc1-c1c(C)cccc1C`, the half-inhibitory concentration (IC50) in assay [2] worked out at 190 nM; in assay [3], 61 nM.

Take `O=C(O)c1cn(C2CC2)c2cc(N3CCNCC3)c(F)cc2c1=O` [CIPROFLOXACIN]: the MIC is above 16 µg/mL in assay [5]; above 16 µg/mL in assay [6]; 0.5 µg/mL (≈ 1.51 µM) in [11]; above 16 µg/mL in assay [12]; 0.5 µg/mL (≈ 1.51 µM) in assay [14]; above 16 µg/mL in assay [15].

In the case of `CCC[C@@H]1C[C@@H](C(=O)N[C@@H]([C@H]2O[C@H](SC)[C@H](O)[C@@H](O)[C@H]2O)[C@H](C)Cl)N(C)C1` [CLINDAMYCIN], the MIC in assay [5] was above 4 µg/mL; in assay [6], above 4 µg/mL; in [11], above 4 µg/mL; in assay [12], above 4 µg/mL; in [14] it was 0.12 µg/mL (≈ 0.282 µM); in assay [15] it was above 4 µg/mL.

Consider `Nc1ccnc(N)n1` [DIAMINOPYRIMIDINE], for which the MIC in [7] was 2 µg/mL (≈ 18.2 µM); in [14] it was 0.5 µg/mL (≈ 4.54 µM).

In the case of `CC[C@H]1OC(=O)[C@H](C)[C@@H](O[C@H]2C[C@@](C)(OC)[C@@H](O)[C@H](C)O2)[C@H](C)[C@@H](O[C@@H]2O[C@H](C)C[C@H](N(C)C)[C@H]2O)[C@](C)(O)C[C@@H](C)C(=O)[C@H](C)[C@@H](O)[C@]1(C)O` [ERYTHROMYCIN], the MIC in [5] is above 8 µg/mL; in assay [6] it was above 8 µg/mL; in assay [11], above 8 µg/mL; in [12] it was above 8 µg/mL; in [14], 0.5 µg/mL (≈ 0.681 µM); in [15], above 8 µg/mL.

In the case of `CC(=O)NC[C@H]1CN(c2ccc(N3CCOCC3)c(F)c2)C(=O)O1` [LINEZOLID], the MIC in assay [5], in assay [6] and in assay [11] was 1 µg/mL (≈ 2.96 µM) each time.

On to `Cc1onc(-c2ccccc2)c1C(=O)N[C@@H]1C(=O)N2[C@@H]1SC(C)(C)[C@@H]2C(=O)O` [OXACILLIN], for which the MIC in assay [5] is above 16 µg/mL; in assay [6], above 16 µg/mL; in [7] it was above 32 µg/mL; in assay [11], above 16 µg/mL; in assay [12] it was above 16 µg/mL; in assay [14], above 16 µg/mL. This compound showed an MIC in assay [15] above 16 µg/mL.

Consider `CC1(C)S[C@@H]2[C@H](NC(=O)Cc3ccccc3)C(=O)N2[C@H]1C(=O)O` [PENICILLIN G], for which the MIC in assay [5] was above 2 µg/mL; in assay [6], above 2 µg/mL; in [7], above 8 µg/mL; in assay [11], above 2 µg/mL; in assay [12], above 2 µg/mL; in assay [14], above 2 µg/mL. In addition, the MIC in assay [15] is above 2 µg/mL.

Regarding `CN(C)[C@@H]1C(O)=C(C(N)=O)C(=O)[C@@]2(O)C(O)=C3C(=O)c4c(O)cccc4[C@@](C)(O)[C@H]3C[C@@H]12` [TETRACYCLINE], the MIC in [7] and in [14] was 32 µg/mL (≈ 72 µM) each time.

`COc1cc(Cc2cnc(N)nc2N)cc(OC)c1OC` [TRIMETHOPRIM]: the MIC in assay [5] is 2 µg/mL (≈ 6.89 µM); in [6], above 256 µg/mL; in [7] it was 2 µg/mL (≈ 6.89 µM); in assay [8], at most 1 µg/mL; in [9] it was above 256 µg/mL; in assay [10], 32 µg/mL (≈ 110 µM). Also, the MIC in assay [11] is 2 µg/mL (≈ 6.89 µM); in [12], above 256 µg/mL; in [13] it was at most 1 µg/mL; in assay [14], 2 µg/mL (≈ 6.89 µM); in [15], 2 µg/mL (≈ 6.89 µM); in [16], 16 µg/mL (≈ 55.1 µM).

Consider `CN[C@H](CC(C)C)C(=O)N[C@H]1C(=O)N[C@@H](CC(N)=O)C(=O)N[C@H]2C(=O)N[C@H]3C(=O)N[C@H](C(=O)N[C@H](C(=O)O)c4cc(O)cc(O)c4-c4cc3ccc4O)[C@H](O)c3ccc(c(Cl)c3)Oc3cc2cc(c3O[C@@H]2O[C@H](CO)[C@@H](O)[C@H](O)[C@H]2O[C@H]2C[C@](C)(N)[C@H](O)[C@H](C)O2)Oc2ccc(cc2Cl)[C@H]1O` [VANCOMYCIN], for which the MIC is 64 µg/mL (≈ 44.2 µM) in assay [6], 8 µg/mL (≈ 5.52 µM) in [7], above 256 µg/mL in assay [12] and above 32 µg/mL in assay [15].

Take GENTAMICIN: the MIC in [6] is above 16 µg/mL; in assay [7], above 16 µg/mL; in assay [11], 1 µg/mL; in assay [12] it was above 16 µg/mL; in [15] it was above 16 µg/mL.
